Columns and labels:
[1] = tested on: CTP:phosphocholine cytidylyltransferase (CCT); experiment: CCT assay in hippocampal neuron homogenates with substance added to the assay mixture; type: biochemical, rat; details: 0.5 mM DOPC/0.5 mM oleic acid/0.3 mM sphingolipid or lyso-sphingolipid; 8-day-old neurons
Procedure: (§1) Neurons from individual cover slips were washed twice with ice-cold phosphate-buffered saline, and cells removed by scraping into 300 μl of buffer containing 50 mM imidazole, 2 mM EDTA, 150 mM KCl, 6 mM ADP, 0.2 mM phenylmethylsulfonylfluoride, 1 μg/ml pepstatin and 1 μg/ml leupeptin. After brief sonication, an aliquot was removed for DNA determination and 100 μl was used for the CCT assay.
(§2) CCT was assayed as described (Weinhold P A and Feldman D A. 1992. Choline-phosphate cytidylyltransferase. Methods Enzymol. 209, 248-258), with some minor modifications. The assay was performed in a final volume of 200 μl containing 1.6 mM phosphorylcholine/0.25 μCi [^14C]methyl phosphorylcholine, 3 mM CTP, 12 mM magnesium acetate, and DOPC liposomes with or without oleic acid and GicCer or GalCer, as indicated in the figure legends. Liposomes were prepared by sonicating resuspended lipids in the assay buffer at room temperature for 3 min using a sonicator (Sonics & Materials Inc., Newtown, Conn.) fitted with a micro-tip probe set to 750 W output, using 25% of the maximal amplitude and with pulsations of 9.0 sec every 9.2 sec, which gave a translucent liposome preparation with no precipitates. The final concentration of DOPC and oleic acid in the liposomes was 500 μM each. The reaction was terminated after 25 min at 37° C. by addition of 200 μl of 150 mM phosphorylcholine in 10% trichloroacetic acid. CDP-choline was recovered by addition of 2 ml of 6% charcoal in water (w/v). After 30 min at room temperature the charcoal suspension was washed 4 times with water and centrifuged at 1,000 gav for 10 min. The aqueous supernatants were removed and CDP-choline was eluted from the charcoal with 3 washes of water/ethanol/28% NH4OH (116:188:11, v/v/v). Eluates were pooled and evaporated to dryness under N2. Phosphorylcholine and CDP-choline were added to the tubes and the samples separated by TLC using 0.9% NaCl/methanol/28% NE4OH (50:70:5, v/v/v) as the developing solvent. Metabolites were identified by iodine, and the CDP-choline spot was scraped into scintillation vials for scintillation counting.
CCT activity was assayed in homogenates prepared from 8-day-old normal rat hippocampal neurons as described herein above. The reaction mixture comprised 0.5 mM DOPC/0.5 mM oleic acid/0.3 mM sphingolipid or lyso-sphingolipid. CCT activity with each sphingolipid or lyso-sphingolipid was measured twice. Basal CCT activity differed by ˜20% between the two experiments; however, the extent of activation or inhibition of CT activity was similar for each sphingolipid and lyso-sphingolipid.

[2] = tested on: CTP:phosphocholine cytidylyltransferase (CCT); experiment: CCT assay in rat brain cortical homogenates with liposomes; type: biochemical
Procedure: as §2
When CCT was assayed in rat or mouse brain cortical homogenates (1 g tissue/12.5 ml of buffer), the homogenate was first centrifuged (200 gav, 20 min) to remove cell debris. The homogenate was diluted with assay buffer to give a final concentration of 200 μg protein/ml. CCT activity was also assayed using purified rat brain CCT (see below).

purified rat brain CCT = experiment: CCT assay with purified rat brain CCT and liposomes; type: biochemical
Procedure: as §2
Rat brain CCT was purified by a method similar to that described for rat liver (Weinhold and Feldman, supra; Weinhold P A Rounsifer M E and Feldman D A. 1986. The purification and characterization of CTP:phosphorylcholine cytidylyltransferase from rat liver. J Biol Chem 261:5104-5110). Rat brains (11 g) were isolated from 8-10-week old rats and homogenized in 51 ml of buffer A (50 mM Tris-HCl pH 7.4, 150 mM NaCl, 1 mM EDTA, 2 mM dithiothreitol, 0.025% (w/v) sodium azide, 1 mM phenylmethylsulfonylfluoride). Brain cytosol was prepared by collecting the supernatants obtained after two sequential centrifugation steps at 10,000 gav for 20 min, and 100,000 gav for 1 h. The protein concentration of the cytosol was adjusted to 6 mg/ml with buffer A, egg yolk PC/oleic acid liposomes were added, followed by acid precipitation. The precipitate was re-suspended in 54 ml of buffer A containing 20 mM n-octyl-β-D-glucopyranoside and 1 mM phenylmethylsulfonylfluoride for 30 min at room temperature. After centrifugation (10,000 gav, 20 min), the n-octyl-β-D-glucopyranoside extract was loaded onto a DEAE-sepharose CL-6B column that had been previously packed and equilibrated with 300 ml of buffer A. All elution procedures were performed using a flow rate of 40 ml/h. The column was successively washed with 100 ml of buffer A, 300 ml of a gradient of 150 mM to 300 mM NaCl in buffer B (50 mM Tris-HCl pH 7.4, 1 mM EDTA, 2 mM dithiothreitol, 0.025% (w/v) sodium azide), and 150 ml of buffer B containing 300 mM NaCl. CCT was eluted with 70 ml of buffer B containing 400 mM NaCl and 50 mM n-octyl-β-D-glucopyranoside.
The fractions containing CCT activity were pooled, diluted with 4 volumes of buffer A and loaded onto a HTP gel hydroxyapatite column (BioRad) that had previously been equilibrated with 200 ml of buffer A. Elutions were performed at flow rates of 20 ml/hour. […]

[3] = tested on: CTP:phosphocholine cytidylyltransferase (CCT); experiment: CCT assay in rat brain cortical homogenates with liposomes; type: biochemical; details: DOPC liposomes, 200 μM; for CCT activity: 8.9±1.0 without lipid
rat hippocampal neurons = details: 50 μM PDMP; cited from earlier work
[4] = tested on: CTP:phosphocholine cytidylyltransferase (CCT); experiment: CCT assay in homogenates of treated hippocampal neurons; type: cell-based, rat; details: 50 μM PDMP
Procedure: as §1
CCT was assayed as described (Weinhold P A and Feldman D A. 1992. Choline-phosphate cytidylyltransferase. Methods Enzymol. 209, 248-258), with some minor modifications. The assay was performed in a final volume of 200 μl containing 1.6 mM phosphorylcholine/0.25 μCi [^14C]methyl phosphorylcholine, 3 mM CTP, 12 mM magnesium acetate, and DOPC liposomes with or without oleic acid and GicCer or GalCer, as indicated in the figure legends. Liposomes were prepared by sonicating resuspended lipids in the assay buffer at room temperature for 3 min using a sonicator (Sonics & Materials Inc., Newtown, Conn.) fitted with a micro-tip probe set to 750 W output, using 25% of the maximal amplitude and with pulsations of 9.0 sec every 9.2 sec, which gave a translucent liposome preparation with no precipitates. The final concentration of DOPC and oleic acid in the liposomes was 500 μM each. […]

[5] = liposomes of DOPC and oleic acid

Compound | effect on CCT activity [1] | effect of exogenously-added lipid on CCT activity [2] | other results
glucosylceramide [GlcCer] | activated | – | effect on CCT activity [2, 5]: increased CCT activity; activation of CCT at the lowest concentration (purified rat brain CCT; DOPC liposomes, 2.5 mole percent): significant activation; maximal activation of CCT (purified rat brain CCT; DOPC liposomes, 10 mole percent): 3-4 fold; effect on CCT activity (purified rat brain CCT; DOPC/oleic acid liposomes): small but significant increase; increase in the rate of CDP-choline synthesis [3]: > 2 fold
CCCCCCCC/C=C\CCCCCCCC(=O)O [oleic acid] | – | – | CCT activity in DOPC/oleic acid liposomes versus DOPC liposomes alone (purified rat brain CCT; DOPC/oleic acid liposomes): ~10 fold
CCCCCCCCCCCCC/C=C/[C@@H](O)[C@@H](N)COP(=O)([O-])OCC[N+](C)(C)C [lysosphingomyelin] | inhibited | – | –
CCCCCCCCCCCCC/C=C/[C@@H](O)[C@H](COC1OC(CO)C(O)C(O)C1O)NC(=O)CCCCCCC (some centres unmarked) [C8-GlcCer] | – | – | CCT activity [3]: 25.9±4.4 nmol/min/mg of protein
CCCCCCCCCCCCCC=CC(O)C(COC1OC(CO)C(O)C(O)C1O)NC(=O)CCCCCCC (centres unmarked) [C8-GalCer] | – | – | CCT activity [3]: 9.1±0.8 nmol/min/mg of protein
CCCCCCCCCCCCC/C=C/[C@@H](O)[C@@H](N)CO [sphingosine] | inhibited | – | –
CCCCCCCCCCCCC/C=C/[C@@H](O)[C@@H](N)CO[C@@H]1O[C@H](CO)[C@H](O)[C@H](O)[C@H]1O [galactosylsphingosine] | No significant effect | no elevation of activity | –
ceramide | inhibited | did not increase CCT activity | –
CCCCCCCCCC(=O)N[C@H](CN1CCOCC1)[C@H](O)c1ccccc1 [PDMP, D-threo-1-phenyl-2-decanoyl-amino-3-morpholino-1-propanol] | – | – | rate of axonal growth (rat hippocampal neurons): reduction; CCT activity after treatment of neurons [4]: significant reduction
lactosylceramide | inhibited | did not increase CCT activity | –

Second part, led by results:

effect on CCT activity [1] | effect of exogenously-added lipid on CCT activity [2] | Compound | other results
No significant effect | no elevation of activity | CCCCCCCCCCCCC/C=C/[C@@H](O)[C@@H](N)CO[C@@H]1O[C@H](CO)[C@@H](O)[C@H](O)[C@H]1O [glucosylsphingosine] | –
inhibited | did not increase CCT activity | sphingomyelin [SM] | –
no significant effect | – | galactosylceramide [GalCer] | effect on CCT activity ([2]; DOPC liposomes): did not affect; effect on CCT activity [2, 5]: had no effect; effect on purified CCT (purified rat brain CCT; DOPC liposomes): no significant effect; effect on CCT activity (purified rat brain CCT; DOPC/oleic acid liposomes): no significant effect
inhibited | – | CCCCCCCCCCCCC/C=C/[C@@H](O)C(N)CO[C@H]1O[C@H](CO)[C@@H](O[C@@H]2O[C@H](CO)[C@H](O)[C@H](O)[C@H]2O)[C@H](O)[C@@H]1O (some centres unmarked) [lactosylsphingosine] | –
